Data reported in patent publication US12599136B2, “Substituted isophthalic acid diamides and their use as herbicides” (Bayer Aktiengesellschaft, priority 2020, dated 2026).

Tests used:
Format in all cases: in vivo
Polygonum convolvulus = experiment: Pre-emergence herbicidal action against POLCO
Description: (§1) Seeds of monocotyledonous and dicotyledonous weed plants and crop plants are laid out in sandy loam soil in wood-fiber pots and covered with soil. The compounds of the invention, formulated in the form of wettable powders (WP) or as emulsion concentrates (EC), are then applied to the surface of the covering soil in the form of an aqueous suspension or emulsion at a water application rate equivalent to 600 to 800 l/ha, with addition of 0.2% wetting agent. After the treatment, the pots are placed in a greenhouse and kept under good growth conditions for the trial plants. The damage to the test plants is scored visually after a test period of 3 weeks by comparison with untreated controls (herbicidal activity in percent (%): 100% activity=the plants have died, 0% activity=like control plants). […] The tables below illustrate, in an illustrative manner, the post-emergence herbicidal action of the compounds of the invention, the herbicidal activity being stated in percent.

Abutilon theophrasti [1] = experiment: Post-emergence herbicidal action against ABUTH
Protocol: (§2) Seeds of monocotyledonous and dicotyledonous weed and crop plants are laid out in sandy loam soil in wood-fiber pots, covered with soil and cultivated in a greenhouse under good growth conditions. 2 to 3 weeks after sowing, the test plants are treated at the one-leaf stage. The compounds of the invention, formulated in the form of wettable powders (WP) or as emulsion concentrates (EC), are then sprayed onto the green parts of the plants in the form of an aqueous suspension or emulsion at a water application rate equivalent to 600 to 800 l/ha, with addition of 0.2% wetting agent. After the test plants have been left to stand in the greenhouse under optimal growth conditions for about 3 weeks, the action of the preparations is assessed visually in comparison to untreated controls (herbicidal action in percent (%): 100% activity=the plants have died, 0% activity=like control plants). […] The tables below illustrate, in an illustrative manner, the post-emergence herbicidal action of the compounds of the invention, the herbicidal activity being stated in percent.

Pharbitis purpurea = experiment: Post-emergence herbicidal action against PHBPU; conditions: visual assessment about 3 weeks after treatment
Protocol: as §2

Amaranthus retroflexus [2] = experiment: Post-emergence herbicidal action against AMARE; conditions: visual assessment about 3 weeks after treatment
Protocol: as §2

Matricaria inodora [3] = experiment: Pre-emergence herbicidal action against MATIN; conditions: visual score after 3 weeks vs untreated controls
Description: as §1

Alopecurus myosuroides [4] = experiment: Post-emergence herbicidal action against ALOMY
Protocol: as §2

Veronica persica [5] = experiment: Pre-emergence herbicidal action against VERPE; conditions: 80 g/ha
Description: as §1

Setaria viridis [6] = experiment: Pre-emergence herbicidal action against SETVI
Description: as §1

Matricaria inodora [7] = experiment: Post-emergence herbicidal action against MATIN; conditions: visual assessment about 3 weeks after treatment
Protocol: as §2

Digitaria sanguinalis = experiment: Pre-emergence herbicidal action against DIGSA
Description: as §1

Veronica persica [8] = experiment: Post-emergence herbicidal action against VERPE; conditions: visual assessment about 3 weeks after treatment
Protocol: as §2

Abutilon theophrasti [9] = experiment: Pre-emergence herbicidal action against ABUTH; conditions: visual score after 3 weeks vs untreated controls
Description: as §1

Alopecurus myosuroides [10] = experiment: Pre-emergence herbicidal action against ALOMY; conditions: visual score after 3 weeks vs untreated controls
Description: as §1

Viola tricolor [11] = experiment: Post-emergence herbicidal action against VIOTR
Protocol: as §2

Echinochloa crus-galli [12] = experiment: Pre-emergence herbicidal action against ECHCG; conditions: 80 g/ha; visual score after 3 weeks vs untreated controls
Description: as §1

Setaria viridis [13] = experiment: Post-emergence herbicidal action against SETVI; conditions: visual assessment about 3 weeks after treatment
Protocol: as §2

Amaranthus retroflexus [14] = experiment: Pre-emergence herbicidal action against AMARE; conditions: visual score after 3 weeks vs untreated controls
Description: as §1

Viola tricolor [15] = experiment: Pre-emergence herbicidal action against VIOTR
Description: as §1

Echinochloa crus-galli [16] = experiment: Post-emergence herbicidal action against ECHCG; conditions: visual assessment about 3 weeks after treatment
Protocol: as §2

Avena fatua [17] = experiment: Pre-emergence herbicidal action against AVEFA; conditions: 80 g/ha; visual score after 3 weeks vs untreated controls
Description: as §1

Avena fatua [18] = experiment: Post-emergence herbicidal action against AVEFA; conditions: 20 g/ha, visual assessment about 3 weeks after treatment
Protocol: as §2

Lolium rigidum = experiment: Pre-emergence herbicidal action against LOLRI; conditions: 80 g/ha
Description: as §1

## CN(CC(F)F)C(=O)c1c(C(F)(F)F)ccc(C(=O)Nc2nnnn2C)c1Cl [Example 1-128]
Polygonum convolvulus; 20 g/ha
  Pre-emergence action against POLCO: 80%
Polygonum convolvulus; 80 g/ha
  Pre-emergence action against POLCO: 80%
Abutilon theophrasti [1]; 5 g/ha
  Post-emergence action against ABUTH: 80%
Abutilon theophrasti [1]; 20 g/ha
  Post-emergence action against ABUTH: 90%
Pharbitis purpurea; 20 g/ha
  Post-emergence action against PHBPU in %: 90%
Amaranthus retroflexus [2]; 5 g/ha
  Post-emergence action against AMARE in %: 100%
Amaranthus retroflexus [2]; 20 g/ha
  Post-emergence action against AMARE in %: 100%
Matricaria inodora [3]; 20 g/ha
  Pre-emergence action against MATIN: 80%
Matricaria inodora [3]; 80 g/ha
  Pre-emergence action against MATIN: 90%
Alopecurus myosuroides [4]; 20 g/ha
  Post-emergence action against ALOMY: 80%
Veronica persica [5]
  Pre-emergence action against VERPE: 100%
Setaria viridis [6]; 20 g/ha
  Pre-emergence action against SETVI: 90%
Setaria viridis [6]; 80 g/ha
  Pre-emergence action against SETVI: 100%
Matricaria inodora [7]; 20 g/ha
  Post-emergence action against MATIN in %: 80%
Digitaria sanguinalis; 20 g/ha
  Pre-emergence action against DIGSA: 100%
Digitaria sanguinalis; 80 g/ha
  Pre-emergence action against DIGSA: 100%
Veronica persica [8]; 20 g/ha
  Post-emergence action against VERPE in %: 90%
Abutilon theophrasti [9]; 20 g/ha
  Pre-emergence action against ABUTH: 100%
Abutilon theophrasti [9]; 80 g/ha
  Pre-emergence action against ABUTH: 100%
Alopecurus myosuroides [10]; 80 g/ha
  Pre-emergence action against ALOMY: 100%
Viola tricolor [11]; 5 g/ha
  Post-emergence action against VIOTR in %: 90%
Viola tricolor [11]; 20 g/ha
  Post-emergence action against VIOTR in %: 100%
Echinochloa crus-galli [12]
  Pre-emergence action against ECHCG: 100%
Setaria viridis [13]; 20 g/ha
  Post-emergence action against SETVI in %: 90%
Amaranthus retroflexus [14]; 20 g/ha
  Pre-emergence action against AMARE: 100%
Amaranthus retroflexus [14]; 80 g/ha
  Pre-emergence action against AMARE: 100%
Viola tricolor [15]; 20 g/ha
  Pre-emergence action against VIOTR: 100%
Viola tricolor [15]; 80 g/ha
  Pre-emergence action against VIOTR: 100%

## CN(C(=O)c1c(C(F)F)ccc(C(=O)Nc2nnnn2C)c1Cl)C1CC1 [Example 1-156]
Echinochloa crus-galli [16]; 5 g/ha
  Post-emergence action against ECHCG in %: 90%
Echinochloa crus-galli [16]; 20 g/ha
  Post-emergence action against ECHCG in %: 90%
Polygonum convolvulus; 80 g/ha
  Pre-emergence action against POLCO: 80%
Abutilon theophrasti [1]; 5 g/ha
  Post-emergence action against ABUTH: 90%
Abutilon theophrasti [1]; 20 g/ha
  Post-emergence action against ABUTH: 90%
Pharbitis purpurea; 5 g/ha
  Post-emergence action against PHBPU in %: 80%
Pharbitis purpurea; 20 g/ha
  Post-emergence action against PHBPU in %: 90%
Amaranthus retroflexus [2]; 5 g/ha
  Post-emergence action against AMARE in %: 100%
Amaranthus retroflexus [2]; 20 g/ha
  Post-emergence action against AMARE in %: 100%
Matricaria inodora [3]; 20 g/ha
  Pre-emergence action against MATIN: 90%
Matricaria inodora [3]; 80 g/ha
  Pre-emergence action against MATIN: 100%
Alopecurus myosuroides [4]; 5 g/ha
  Post-emergence action against ALOMY: 80%
Alopecurus myosuroides [4]; 20 g/ha
  Post-emergence action against ALOMY: 90%
Avena fatua [17]
  Pre-emergence action against AVEFA: 80%
Veronica persica [5]
  Pre-emergence action against VERPE: 90%
Setaria viridis [6]; 80 g/ha
  Pre-emergence action against SETVI: 100%
Matricaria inodora [7]; 5 g/ha
  Post-emergence action against MATIN in %: 80%
Matricaria inodora [7]; 20 g/ha
  Post-emergence action against MATIN in %: 90%
Veronica persica [8]; 5 g/ha
  Post-emergence action against VERPE in %: 80%
Veronica persica [8]; 20 g/ha
  Post-emergence action against VERPE in %: 80%
Abutilon theophrasti [9]; 20 g/ha
  Pre-emergence action against ABUTH: 100%
Abutilon theophrasti [9]; 80 g/ha
  Pre-emergence action against ABUTH: 100%
Alopecurus myosuroides [10]; 80 g/ha
  Pre-emergence action against ALOMY: 100%
Viola tricolor [11]; 5 g/ha
  Post-emergence action against VIOTR in %: 90%
Viola tricolor [11]; 20 g/ha
  Post-emergence action against VIOTR in %: 90%
Echinochloa crus-galli [12]
  Pre-emergence action against ECHCG: 90%
Setaria viridis [13]; 5 g/ha
  Post-emergence action against SETVI in %: 90%
Setaria viridis [13]; 20 g/ha
  Post-emergence action against SETVI in %: 90%
Amaranthus retroflexus [14]; 20 g/ha
  Pre-emergence action against AMARE: 100%
Amaranthus retroflexus [14]; 80 g/ha
  Pre-emergence action against AMARE: 100%
Viola tricolor [15]; 80 g/ha
  Pre-emergence action against VIOTR: 100%

## CN(C)C(=O)c1c(Br)ccc(C(=O)Nc2nnnn2C)c1Cl [Example 1-191]
Echinochloa crus-galli [16]; 20 g/ha
  Post-emergence action against ECHCG in %: 100%
Avena fatua [18]
  Post-emergence action against AVEFA in %: 90%
Abutilon theophrasti [1]; 5 g/ha
  Post-emergence action against ABUTH: 80%
Abutilon theophrasti [1]; 20 g/ha
  Post-emergence action against ABUTH: 90%
Amaranthus retroflexus [2]; 5 g/ha
  Post-emergence action against AMARE in %: 100%
Amaranthus retroflexus [2]; 20 g/ha
  Post-emergence action against AMARE in %: 100%
Matricaria inodora [3]; 20 g/ha
  Pre-emergence action against MATIN: 80%
Matricaria inodora [3]; 80 g/ha
  Pre-emergence action against MATIN: 100%
Alopecurus myosuroides [4]; 5 g/ha
  Post-emergence action against ALOMY: 80%
Alopecurus myosuroides [4]; 20 g/ha
  Post-emergence action against ALOMY: 100%
Avena fatua [17]
  Pre-emergence action against AVEFA: 90%
Veronica persica [5]
  Pre-emergence action against VERPE: 90%
Setaria viridis [6]; 80 g/ha
  Pre-emergence action against SETVI: 100%
Lolium rigidum
  Pre-emergence action against LOLRI: 80%
Abutilon theophrasti [9]; 20 g/ha
  Pre-emergence action against ABUTH: 100%
Abutilon theophrasti [9]; 80 g/ha
  Pre-emergence action against ABUTH: 100%
Alopecurus myosuroides [10]; 20 g/ha
  Pre-emergence action against ALOMY: 90%
Alopecurus myosuroides [10]; 80 g/ha
  Pre-emergence action against ALOMY: 100%
Echinochloa crus-galli [12]
  Pre-emergence action against ECHCG: 90%
Setaria viridis [13]; 20 g/ha
  Post-emergence action against SETVI in %: 100%
Amaranthus retroflexus [14]; 80 g/ha
  Pre-emergence action against AMARE: 100%
Viola tricolor [15]; 80 g/ha
  Pre-emergence action against VIOTR: 100%
